System: bladder pressure and salivation
Experiment: In vivo experiments using anesthetized rabbit (carbachol challenge)
Conditions: carbachol 1.5 ug/kg intra-arterial, from ID50 values, expressed as fold of selectivity of oxybutynin

| SMILES | Selectivity for bladder pressure inhibition vs. salivation |
| --- | --- |
| CC1=NCCN1CC(=O)[C@](O)(c1ccccc1)C1CCCC1 [Compound No. 85, (2R)-1-Cyclopentyl-1-hydroxy-3-(2-methyl-4,5-dihydro-imidazol-1-yl)-1-phenyl-propan-2-one] | about 2 |
| CN1CCC(N(C)CC(O)C(O)(c2ccccc2)C2CCCC2)CC1 (centres unmarked) [Compound No. 24, 1-Cyclopentyl-3-[methyl-(1-methyl-piperidin-4-yl)-amino]-1-phenyl-propane-1,2-diol] | about 2 |

— patent US20080280883A1, “Muscarinic Receptor Antagonists” (priority 2004, published 2008)
